The record followed here is patent publication US20250090510A1, “eIF4G1-eIF1 INHIBITORS AND USE THEREOF” (YEDA RESEARCH AND DEVELOPMENT CO. LTD., priority 2022, published 2025).

The structures appear in SMILES notation.

This test relates to HEK293T cells. The test is described as follows: Polysome fractionation and real-time PCR of specific genes. Format: cell-based, human. As to conditions: 3 h. As to the method:
FIGS. 5A-D: 5′UTR length-dependent translational control by the eIF1-eIF4G1. […] The asterisks denote a statistically significant difference. **p<0.01, ****p<0.0001. (5B) A scheme of the firefly reporter genes that are driven by long (354 nt) and short (111 nt) 5′ UTR length, is shown on the top. HEK293T cells were transfected with these reporter genes. After 4 h, transfected cells were treated with DMSO, i14G1-10 (5 μM), or i14G1-12 (5 μM) for 16 h and analyzed for firefly luciferase activities. The graph presents the normalized luminescence activity of the long 5′UTR and the short 5′UTR reporters in the indicated treatments. The data are shown as mean±SEM, n=6. The asterisks denote statistically significant difference compared to DMSO, according to Student's t-tests (one-tailed, paired). *p<0.05; **p<0.01. (5C-D) HEK293T cells were treated with DMSO, i14G1-10, and i14G1-12 for 3 h, lysed, and subjected to sucrose gradient sedimentation and fractionation. Fractions were pooled according to polysome profile as free (grey), light (blue), and heavy (yellow) polysomal fractions. cDNA was prepared from each fraction pool and real-time PCR was performed for the indicated TISU genes (5C) or histone genes (5D). The data are shown as mean±SEM, n=3. The asterisks denote statistically significant difference compared to DMSO, according to Student's t-tests (one-tailed, paired), *p<0.05; **p<0.01.
FIGS. 7A-E: (7A) Ribo-seq and TI-seq read tracks of representative stress response-associated mRNAs (DDIT3 and GADD34) in DMSO (black), i14G1-10 (red), and i14G1-12 (green) samples. The red triangle represents 5′UTR TIS codons and the green denotes annotated TIS. Black arrows show the translation direction. […] The graphs in the lower panel are the quantification of ATF4's uORF1′, uORF1, uORF2, and main-ORF reads of the Ribo-seq data. The asterisks denote statistically significant difference compared to DMSO, according to Student's t-tests (one-tailed, paired). **p<0.01, ***p<0.001, ****p<0.0001. (7C) HEK293T cells were treated with DMSO, i14G1-10, and i14G1-12 for 3 h, lysed and subjected to sucrose gradient sedimentation and fractionation. Fractions of the free (grey), light (blue), and heavy (yellow) were pooled. cDNA was prepared from each fraction pool and real-time PCR was performed for the indicated ISR genes. The data are shown as mean±SEM, n=3. The asterisks denote statistically significant difference compared to DMSO, according to Student's t-tests (one-tailed, paired). *p<0.05; **p<0.01. (7D) HEK293T cells were treated with DMSO, i14G1-10, and i14G1-12 for 3 h. The respective cell lysates were subjected to western blot to check the protein levels of ATF3 and ATF4 (left). The graph represents the relative chemiluminescence signal intensity (mean±SEM) for ATF4 and AT3 normalized to GAPDH protein levels of three biological replicates. The asterisks denote statistically significant difference compared to DMSO, according to Student's t-tests (one-tailed, paired), *p<0.05. (7E) Control MEFs and eIF2α S52A mutant MEFs were treated with DMSO (vehicle control), and sub-cytotoxic concentrations of i14G1-10 (30 μM) and i14G1-12 (15 μM) for 3h. Cell lysates were then subjected to sucrose gradient sedimentation to obtain polysome profiles.
Polysome profile and real-time PCR. HEK293T cells were cultured in 10 cm plate up to 80% confluence, followed by DMSO, i14G1-10 (20 μM), and i14G1-12 (10 μM) treatment. After 3 h, the cells were incubated with 100 μg/ml cycloheximide for 5 minutes, washed with cold polysome buffer (20 mM Tris pH8, 140 mM KCl, 5 mM MgCl2, and 100 μg/ml cycloheximide). Cells were collected in 500-μl polysome buffer supplemented with 0.5% Triton, 0.5% DOC, 1.5 mM DTT, 150 units RNase inhibitor, and 5-μl protease inhibitor cocktail. Lysed samples were centrifuged at 12000 RPM, 5 minutes at 4° C. The cleared lysate was loaded onto sucrose density gradient (10-50%) and centrifuged at 38000 RPM for 105 minutes at 4° C. […]
On the technique in general: In qPCR the cycle at which signal appears reflects the starting amount.

Take `O=C(/C=C/Sc1ccc(C(F)(F)F)cn1)c1ccccc1` [i14G1-10]: the “translation of ACTB mRNA (control) in polysome fractions” value is on record as “decreased translation of the ACTB mRNA”; the “translation of eight histone genes in polysome fractions” value is given as “general trend of upregulation”; the “translation of seven TISU genes in polysome fractions” value is “either unaffected or slightly upregulated”; the “translation of stress-response genes in Free, Light and Heavy polysome fractions” value is listed as “all found to be upregulated”.
For `Cn1ccnc1S/C(=C/C=C(C#N)C#N)c1ccc(Cl)cc1` [i14G1-12] the same measures were “decreased translation of the ACTB mRNA”, “general trend of upregulation”, “either unaffected or slightly upregulated” and “all found to be upregulated”.
